Laboratory results: patent publication US12569502B2, “Use of bile acids and derivatives thereof in preparation of GPR39 agonist” (PEKING UNIVERSITY, priority 2019, dated 2026)

Biological target: T1, zinc ion binding site mutant (H17A and H19A) GPR39 (Mus musculus, UniProt Q5U431, H17A/H19A)
T1 construct: 3HA (N); P2A-mCherry (C); expressed in transfected cells; host or cells: HEK293T, transient (Lipofectamine 3000)
T1 sequence (Q5U431 1-456 H17A/H19A): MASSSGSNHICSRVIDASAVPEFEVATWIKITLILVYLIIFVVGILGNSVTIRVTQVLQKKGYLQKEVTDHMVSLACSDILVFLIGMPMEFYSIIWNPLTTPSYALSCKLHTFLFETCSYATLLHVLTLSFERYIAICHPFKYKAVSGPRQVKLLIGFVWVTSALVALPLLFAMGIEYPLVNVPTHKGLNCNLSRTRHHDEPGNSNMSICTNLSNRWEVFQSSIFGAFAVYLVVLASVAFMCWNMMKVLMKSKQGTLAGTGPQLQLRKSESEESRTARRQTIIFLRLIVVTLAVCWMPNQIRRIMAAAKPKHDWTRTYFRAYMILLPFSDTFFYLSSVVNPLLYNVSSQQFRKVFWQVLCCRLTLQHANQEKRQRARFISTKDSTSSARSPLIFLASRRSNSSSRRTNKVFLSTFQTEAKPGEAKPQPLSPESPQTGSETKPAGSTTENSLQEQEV
Experiment: Calcium imaging on 293T cells transiently transfected with zinc ion binding site mutant GPR39
Format: cell-based
Details: transiently transfected HEK293T cells
Description: In the present application, the bile acid and/or derivative thereof is capable of activating the GPR39 independent of a zinc ion binding site. For example, in some embodiments, murine-derived wild-type (WT) GPR39 or zinc ion binding site mutant (H17A and H19A) GPR39 are transiently expressed in 293T cells by using lipofectamine3000 transfection kit. The activation effect of LCAS on the wild-type (WT) and mutants (H17A and H19A) is detected by calcium imaging.
The pCMV6-3HA-mGPR39-P2A-mCherry vector carrying murine-derived GPR39 gene and having a total length of about 7 Kbp was selected as the PCR template, and a site-directed mutant vector was obtained by PCR site-directed mutagenesis. With the mutation site as the centre, a forward primer m39-H17A-F and a reverse primer m39-H17A-R were designed by extending approximately 15 bp each way, which sequences were respectively shown in Table 3 below. At 1 bp upstream of the mutation site, a 15 bp complementary sequence to the forward primer was designed, and the length of the reverse primer was designed to maintain the annealing temperature of the primer at 60° C. A high-fidelity DNA polymerase (Phanta Max Super-fidelity DNA polymerase, Vazyme) was used for site-directed PCR. 5 μL cutsmart buffer (NEB) and 1 μL restriction endonuclease DpnI (NEB) were added into the PCR product for overnight digestion, and then 10 μL of the product was transferred into 50 μL DH5α for heat shock transformation. The corresponding resistant solid LB medium was selected to coat and culture the product and enable it grow overnight at 37° C. A single colony was picked for inoculation, and the bacteria were shaken to extract the plasmid which was verified by sequencing. A monoclonal vector which had been sequenced to be correct was selected and marked as pCMV6-3HA-mGPR39(H17A&H19A)-P2A-mCherry, which structure was shown in FIG. 5.
HEK293T cells were seeded in a PDL-coated 96-well plate (coring Co.) at an appropriate density (about 3×10^4 cells/well) and cultured under conditions of 37° C. and 5% CO2. […]

SMILES	EC50 (+ 4 μM zinc ions) [µM]	EC50 (agonist alone) [µM]
C[C@H](CCC(=O)O)[C@H]1CC[C@H]2[C@@H]3CC[C@@H]4C[C@H](OS(=O)(=O)O)CC[C@]4(C)[C@H]3CC[C@]12C [LCAS]	8.7 ± 0.8	24 ± 0.8
[Zn+2] [Zinc ions, reference compound]		> 100
